Measurements reported in article PMC7177833, “2-Aminopyridine Analogs Inhibit Both Enzymes of the Glyoxylate Shunt in Pseudomonas aeruginosa” (International Journal of Molecular Sciences, 2020).
≈ marks a conversion by molar mass, not a printed value. Read-outs that look alike come from different tables or passages of the source.

Legend:
[1] = target: T1, CYP1A2 (Homo sapiens, UniProt P05177); experiment: CYP450 inhibition in HLM, phenacetin probe
T1 sequence (P05177 1-516): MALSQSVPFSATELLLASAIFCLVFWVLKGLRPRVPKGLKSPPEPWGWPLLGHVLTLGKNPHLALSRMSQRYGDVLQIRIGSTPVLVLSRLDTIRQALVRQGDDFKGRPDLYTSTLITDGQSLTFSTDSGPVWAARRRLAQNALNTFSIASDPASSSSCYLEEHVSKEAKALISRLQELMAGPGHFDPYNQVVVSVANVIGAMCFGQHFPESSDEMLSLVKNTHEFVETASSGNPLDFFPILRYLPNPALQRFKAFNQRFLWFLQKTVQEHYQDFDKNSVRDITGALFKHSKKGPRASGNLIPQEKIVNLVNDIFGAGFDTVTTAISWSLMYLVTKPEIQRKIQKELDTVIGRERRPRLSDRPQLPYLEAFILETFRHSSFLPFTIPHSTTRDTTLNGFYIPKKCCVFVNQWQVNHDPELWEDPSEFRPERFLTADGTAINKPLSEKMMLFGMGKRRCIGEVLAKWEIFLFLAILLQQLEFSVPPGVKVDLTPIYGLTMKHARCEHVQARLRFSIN
Description: (§1) The CYP450 inhibition was determined by measuring the reaction products of known CYP450 substrates (probes). Probe solutions were prepared by diluting stock solutions with buffer (100 mM Tris-HCl, pH 7.5, and 0.5 mM EDTA) to the final indicated concentrations (Figure 5), and adding 180 µL of pooled human liver microsomes (20 mg/mL) (BioIVT, West Sussex, UK). These probe solutions were dispensed (195 µL) into clear 96-well plates with low evaporation lids (Corning, Turin, Italy) and the plates were prewarmed to 37 °C in a thermomixer (Hamilton, Agrate Brianza, Italy). Next, 5 µL of the test compound or appropriate positive control (Table S4) were added to the wells and the plates were incubated for a further 5 min. Following this, the reactions were started by adding NADPH regenerating solution (50 µL, see previous Section 4.7) to each well. CYP450 mixtures containing phenacetin, rosiglitazone, mephenytoin, atorvastatin, and nifedipine probes were incubated for 10 min at 37 °C, whereas those with midazolam and diclofenac were incubated for 5 min at 37 °C. Aliquots (100 µL) from each reaction mixture were quenched in 200 µL acetonitrile, and the mixtures were sedimented at 3000 ×g for 10 min at 4 °C. The supernatants were diluted in water containing 5 ng/mL Rolipram as an internal standard for LC-MS/MS analysis. All incubations were carried out in triplicate.
(§2) Probe products were analyzed on an API4000 Qtrap mass spectrometer (Applied Biosystems/MDS SCIEX, Monza, Italy) coupled with an Acquity UPLC system (Waters, Milan, Italy) and a CTC-PAL auto-injector (CTC Analytics AG, Zwingen, Switzerland). […] The column temperature was maintained at 60 °C. The injected sample volume was 10 µL, and analytes were eluted at a flow rate of 800 µL/min in a gradient of eluent A (water with 0.1% formic acid) and eluent B (acetonitrile with 0.1% formic acid). […] The analytes were quantified in multiple reaction-monitoring mode. Data were processed, and the percentage control activity was calculated based on a comparison between the ratio of the sample peak area and the peak area.

[2] = target: T2, CYP2C9 (Homo sapiens, UniProt P11712); experiment: CYP450 inhibition in HLM, diclofenac probe; type: in vitro ADME; conditions: read-out: IC50 CYP450 2C9
T2 construct: pooled human liver microsomes; tissue BioIVT; host or cells: pooled human liver microsomes
Description: as §1, §2

[3] = system: P. aeruginosa PAO1; experiment: Antibacterial growth assay (OD600, 18 h) in LB or M9-acetate; type: cell-based; conditions: Pseudomonas aeruginosa; for inhibition at 200 µM: final optical density; for MIC: PAO1, MIC = lowest concentration inhibiting >75% of growth
Description: Growth assays were carried out using clear, U-bottom, sterile 96-well plates (Thermo Fisher Scientific, Bishop’s Stortford, UK). P. aeruginosa PAO1 overnight cultures were diluted to a starting OD600 of 0.05 in LB medium or M9 medium supplemented with 0.5% acetate. The test compounds were added to the indicated final concentrations, and the plates were covered with gas-permeable adhesive seals (Scientific Laboratory Supplies, Nottingham, UK). Assay controls included 1% DMSO, a positive antibiotic control (ciprofloxacin, 1 µg/mL), and medium-only wells as a control for background absorbance. […]

[4] = PAO1, LB medium, read-out: PAO1 Growth Inhibition (%) at 200 µM LB
[5] = PAO1, M9-acetate medium, read-out: PAO1 Growth Inhibition (%) at 200 µM M9ac
[6] = M9 medium with 0.5% acetate, read-out: MIC M9ac

T2 sequence (P11712 whole entry): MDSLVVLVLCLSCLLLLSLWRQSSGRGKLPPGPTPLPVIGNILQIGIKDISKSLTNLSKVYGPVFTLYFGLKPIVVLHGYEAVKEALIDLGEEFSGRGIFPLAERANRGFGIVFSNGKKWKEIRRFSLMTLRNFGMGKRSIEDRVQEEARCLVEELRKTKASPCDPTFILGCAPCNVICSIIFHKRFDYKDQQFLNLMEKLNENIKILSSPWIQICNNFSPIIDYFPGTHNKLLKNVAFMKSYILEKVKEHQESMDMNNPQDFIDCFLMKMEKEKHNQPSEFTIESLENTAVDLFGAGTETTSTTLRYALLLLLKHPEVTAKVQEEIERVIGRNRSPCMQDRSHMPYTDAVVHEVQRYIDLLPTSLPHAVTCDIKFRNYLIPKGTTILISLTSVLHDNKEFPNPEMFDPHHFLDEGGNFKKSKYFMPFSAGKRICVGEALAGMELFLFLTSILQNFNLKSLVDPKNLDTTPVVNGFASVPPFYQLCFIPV

Row | SMILES | IC50 [1] [µM] | IC50 [2] [µM] | inhibition at 200 µM [3, 4] [%] | inhibition at 200 µM [3, 5] [%] | MIC ([3]; LB medium, read-out: MIC LB) [µM] | MIC [3, 6] [µM]
1 | CC(C)(C)OC(=O)/N=C(\NC(=O)OC(C)(C)C)Nc1cc(Cl)ccn1 [SB002] | > 100 | > 100 | 0 | 100 | > 200 | 1.6 (≈ 0.593 µg/mL)
2 | CC(C)(C)OC(=O)/N=C(\NC(=O)OC(C)(C)C)Nc1cc(C#N)ccn1 [SB023] | > 100 | > 100 | 0 | 97 | > 200 | 13.5 (≈ 4.88 µg/mL)
3 | Nc1cc(Cl)ccn1 [Compound 2-AP, 2-amino-4-chloropyridine, reference compound] | > 100 | > 100 | 0 | 8 | > 200 | > 200
